Test results published in US20050238666A1, “Methods of enhancing stem cell engraftment” (priority 2003, published 2005).

What was measured:
[1] = system: hematopoietic progenitor cells; assay: Colony assay in methylcellulose (CFU) of transduced bone marrow progenitor cells; format: cell-based, mouse; settings: expression of the transgene in the cells; FIG. 9
Description: Mouse Low Density Bone Marrow (LDBM) Isolation and Viral Transduction: Whole bone marrow was collected from C57B1/6 animals (Jackson Laboratory, Bar Harbor, Me.), 48 h after treatment with 5-fluorouracil (150 mg/kg of body weight, IP; American Pharmaceutical Partners, Los Angeles, Calif.) and was re-suspended in RPMI medium (Life Technologies, Inc.). Bone marrow cells were obtained from the animals, and low-density, mononuclear bone marrow (LDBM) cells are isolated from fresh bone marrow (BM) by density centrifugation on Histopaque-1083 (Sigma, […].) gradient for 20 min at 1,700 rpm at room temperature. Cells at the interface were collected and washed twice with Roswell Park Memorial Institute (RPMI) Media and then counted on a hemocytometer. […] Cells were subsequently analyzed and sorted for green fluorescence protein (GFP) using a Fluorescence Activated Cell Sorting (FACS) (Becton Dickinson, San Jose, Calif.). […]
The transduction efficiency of the cells was tested using the following assay: Colony assay: 2×10^4 cells re-suspended in 4 mL complete methylcellulose (Metho Cult™ GF M3434, Stem Cell Technologies) were plated in 35 mm grided non-tissue culture dishes (Nalge Nunc Int.) (1 mL/dish). The colonies were scored after 10 days incubation in 5% CO2 at 37° C. […]

hematopoietic stem cells = assay: In vivo transplantation and engraftment study (EGFP+ cells by FACS and CFU); design: species or system C57BL/6 mice
Description: FIG. 2 is a graphical representation of the experimental design showing the design for injecting mice with bone marrow cells. The peripheral blood (PB) cells were tested for EGFP+ cells by FACS analysis and the bone marrow (BM) cells were tested for EGFP+ cells by FACS analysis and by CFU assay.
4×10^5 cells were injected into C57BL/6 mice (8-10 weeks old). Prior to the transplant, the mice were irradiated with 11.75 Gy in split dose (7 Gy and 4.75 Gy) using a Cs^137 source with a minimum of 3 h between doses. For engraftment studies, 100 μL tail vein blood samples were withdrawn from each transplanted mouse every 4 weeks. Peripheral blood cells were incubated in red blood cell lysis buffer (Pharmingen, San Diego, Calif.) for […] at room temperature. Cells were then washed twice and re-suspended in 1 ml of PBS and 0.2% bovine serum albumin (BSA) (Roche Applied Sciences, Indianapolis, Ind.). The percentages of GFP^+ cells of each sample were analyzed by flow cytometry. Sixteen weeks post transplant bone marrow and spleen were isolated from the experimental animals. Cells isolated from these organs were incubated in red blood cells lysis buffer, re-suspended in PBS, 0.2% BSA and analyzed by flow cytometry, as described above.
The ability of hematopoietic progenitor cells to form colonies was analyzed in the presence of various transgenes expressing normal and mutated forms of GTPases. […]

Row | Substance | ability of hematopoietic progenitor cells to form colonies [1] | engraftment: EGFP+ peripheral blood cells in transplanted animals (hematopoietic stem cells; 3, 7, 11 and 16 weeks post transplant, normalized to control cells at 3 weeks, FIG. 6) | stem cell (HSC) engraftment (hematopoietic stem cells; peripheral blood, bone marrow, spleen, CFU, secondary transplant, FIGS. 6, 8, 9 and 10)
1 | RhoAN19: dominant negative mouse RhoA protein with threonine to asparagine point mutation at position 19, expressed from retroviral vector | not affected | advantageous | advantageous
2 | Cdc42N17: dominant negative Cdc42 cDNA cloned into a murine stem cell virus-based bicistronic EGFP vector | not affected |  | 
